Consider three compounds from US11420181B2, “Methods for suppression of ammonia formation from staphylococcus-xylosus and staphylococcus-cohnii” (Dow Global Technologies LLC, priority 2016, dated 2022).

Experiment [1] can be described thus: Barrel test experiments on used broiler litter, Examples 5-8. Conditions: used rice hull litter in tubs, vs untreated control. From the text: Used litter (rice hulls which may also contain poultry manure, moisture, feed residue and/or feathers) were acquired from a commercial broiler chicken farm and transported in plastic barrels. Twenty three kilograms of litter were weighed into 0.4 m^2 plastic tubs to cover the tubs to a depth of approximately 10 cm. The tubs were stored uncovered in a poultry rearing facility, and environmental conditions were controlled to mimic the conditions that would be experienced in a commercial broiler house (temperature around 32° C.).
Tubs were treated with NaHSO4 at a dose equivalent to 1 wt % Ammonia was then measured for 35 days.
Tubs were treated in two steps. A dose equivalent to 1 wt % of NaHSO4 as Acidifier was added to the tubs. After 24 hours, a dose equivalent to 3.2 wt % of Na2EDTA was added and dispersed. Ammonia was then measured for 35 days.
Tubs were treated in two steps. A dose equivalent to 1 wt % of NaHSO4 as Acidifier was added to the tubs. After 24 hours, a dose equivalent to 3.2 wt % of K2EDTA was added as an aqueous solution. Ammonia was then measured for 35 days.
Tubs were treated in two steps. A dose equivalent to 1.23 wt % of EDTA Acid was added to the tubs. After 24 hours, a dose equivalent to 3.2 wt % of Na2EDTA was added and dispersed. Ammonia was then measured for 35 days.

The subject of a further experiment is Staphylococcus-cohnii. In words: Lab headspace ammonia test on ground straw with synthetic poultry urine, Example 3. In kind it is cell-based. On the procedure:
(§1) Synthetic Poultry Urine Preparation. In these Examples, synthetic urine was prepared as follows for each 100 g of synthetic poultry urine needed. The amounts can be scaled up or down as needed. The following components were added to a sterilized bottle: Urea (USP Grade): 0.43 g, Ammonia: 0.46 g, K3PO4 (USP grade): 6.8 g, Milli-Q water: 83.52 g. The bottle was capped and placed on a bottle roller at ambient temperature for 1 to 3 hours. The pH of the solution was measured to confirm the pH is between 13 and 14.
(§2) Bacteria Preparation. In these Examples, the Staphylococcus-cohnii and the Staphylococcus-cohnii/Staphylococcus-xylosus bacteria strains used were environmental isolates from poultry manure and cat litter respectively. As used herein, “Staphylococcus-cohnii/Staphylococcus-xylosus” refers to a bacteria strain that is an environmental isolate from cat feces that through DNA sequencing has been identified to be genetically similar to both Staphylococcus-cohnii and Staphylococcus-xylosus. The identifications were determined by DNA sequencing at an external lab with genus confidence level.
(§3) The bacteria strains were isolated on a sterile tryptic soy agar plate, grown for 2 days in a 30 degrees ° C. incubator and stored in a refrigerator. A fresh plate was prepared every 2 weeks.
The bacteria were grown the day before the start of the experiments by taking a loopful of the bacteria from the agar plate with a 10 uL loop and immersing it in 10 mL sterile tryptic soy broth filling half of the container. All bacteria used in the Examples are aerobic and therefore need air on top of the growth medium. The vials were incubated at 30 degrees C. in a shaking incubator at 100 rpm for 24 hours. The count of the bacteria in the growth media was determined by the serial dilutions method, where 10 serial dilutions of the growth medium in sterile Physiological Buffered Saline (PBS) solution are performed with 10× dilution each time. Each dilution was plated twice using 100 μL of growth media for each plate. The numbers of colonies were counted on the dilution plate that had between 30 and 300 colony forming units (CFU) on it. The number of colony forming units in the original growth media was then determined by back-calculating the number of dilutions. […] All pipettes, containers, tips, spoons etc. equipment used for these experiments were sterile in order to prevent contamination with other bacteria. Litters, treatments and chemicals used for preparing synthetic urine were used as-is, without sterilization.
Preparation of grinded straw bedding. A sterilized lab blender was loaded with straw and grinded at pulsed, high setting for 15-45 seconds. Then a new batch of straw was loaded to the blender. […]

Experiment [2] relates to Staphylococcus-xylosus/Staphylococcus-cohnii. In words: Lab headspace ammonia test on ground straw with synthetic poultry urine, Example 4. In kind it is cell-based. On the procedure: as §1, §2, §3
The bacteria were grown the day before the start of the experiments by taking a loopful of the bacteria from the agar plate with a 10 uL loop and immersing it in 10 mL sterile tryptic soy broth filling half of the container. All bacteria used in the Examples are aerobic and therefore need air on top of the growth medium. […] The count of the bacteria in the growth media was determined by the serial dilutions method, where 10 serial dilutions of the growth medium in sterile Physiological Buffered Saline (PBS) solution are performed with 10× dilution each time. […] The numbers of colonies were counted on the dilution plate that had between 30 and 300 colony forming units (CFU) on it. The number of colony forming units in the original growth media was then determined by back-calculating the number of dilutions. […]

Setting [3] is: 1 day after treatment, vs untreated control.
[4] abbreviates: 3 days after treatment, untreated control 200+ ppm (above tube limit).

Regarding `O=S(=O)([O-])O.[Na+]` [1 wt % NaHSO4, NaHSO4], the “% improvement in headspace ammonia” value in experiment [1] (3 days after treatment) is recorded as 92%; in experiment [1] (7 days after treatment), 74%; in experiment [1] (14 days after treatment), 37%; in experiment [1] (21 days after treatment), −37%; in experiment [1] (28 days after treatment) it was −16%.
For the compound `O=C(O)CN(CCN(CC(=O)O)CC(=O)O)CC(=O)O.[K].[K]` [2.5% K2EDTA sprayed on top, dipotassium ethylenediaminetetraacetic acid], the “% improvement in headspace ammonia” value in the experiment on Staphylococcus-cohnii (setting [3]) is on record as 64%; in the experiment with Staphylococcus-cohnii (setting [4]), 5+ %; in experiment [2] (setting [3]), 57%.
In the case of `O=C(O)CN(CCN(CC(=O)O)CC(=O)O)CC(=O)O.[K].[K]` [2.5% K2EDTA, dipotassium ethylenediaminetetraacetic acid], the “% improvement in headspace ammonia” value is recorded as 64% in the experiment on Staphylococcus-cohnii (setting [3]), 8+ % in the experiment on Staphylococcus-cohnii (setting [4]), 73% in experiment [2] (setting [3]) and 12+ % in experiment [2] (setting [4]).
